Where “and” joins values, the source holds several entries; their conditions need not be identical. Equal entries are not always repeated. Entries after “also recorded” stand apart in the source; their conditions may differ. Where two headings read alike, the source gives them in different places. Marks after values point to notes of the source that are not given here.
What was measured:
[1] = tested on: clinical isolates of L. monocytogenes; type: cell-based, Listeria monocytogenes; conditions: for MIC50: concentration required to inhibit 50% of L. monocytogenes isolates (six isolates); for MIC: broth microdilution in low binding tubes, triplicates, 16 hour incubation
Method: (§1) The MICs of conjugated PNAs, free PNA, CPPs and untreated control against L. monocytogenes were determined using the broth microdilution method according to the Clinical and Laboratory Standards Institute (CLSI) guidelines with the following modifications. Briefly, low binding clear microcentrifuge tubes (USA scientific, Inc. Ocala, FL) were used in triplicates for each reaction instead of traditional 96-well plates. […] After a 16 hour incubation period (of test agent with bacteria), the number of viable bacteria was enumerated by serial dilution and counting on TSA plates. The MICs were repeated at least twice.

L. monocytogenes F4244 [2] = assay: Concentration-dependent bacterial log reduction in pure culture; type: cell-based, Listeria monocytogenes; conditions: for Log CFU/ml: pure culture F4244, 16 hour incubation; for Log CFU reduction: relative to control, pure culture F4244
Method: as §1

L. monocytogenes F4244 [3] = assay: Time kill assay; type: cell-based, Listeria monocytogenes; conditions: 12 hours; for time to complete eradication of Listeria: 32 μM PNA, 37 °C, samples every 2 hours, ~10^5 CFU/ml; for bactericidal or bacteriostatic activity: L. monocytogenes, time kill at 32 μM
Method: L. monocytogenes F4244 in logarithmic growth phase was diluted to ~10^5 CFU/ml and incubated with 32 μM of the five PNAs (in triplicates) at 37 °C for 12 hours. Samples were collected every two hours, serially diluted, and plated onto TSA plates. Plates were then incubated wat 37 °C for 24 hours before viable CFUs were determined.
Samples were collected every 20 minutes and processed as above.

hly = assay: Real-Time qRT-PCR gene expression, hly; type: cell-based, L. monocytogenes F4244; conditions: 2 μM PTAT, 3.5 hours, 37 °C
plcA = assay: Real-Time qRT-PCR gene expression, plcA; type: cell-based, L. monocytogenes F4244; conditions: 2 μM PTAT, 3.5 hours, 37 °C
plcB = assay: Real-Time qRT-PCR gene expression, plcB; type: cell-based, L. monocytogenes F4244; conditions: 3.5 hours, 37 °C
[4] = tested on: L. monocytogenes F4244 inside infected J774A.1 cells; type: cell-based; conditions: 4 hours; for Log CFU/ml: intracellular F4244 in J774A.1; for Log CFU reduction: intracellular F4244 in J774A.1, versus control
rpoA = conditions: 3.5 hours, 37 °C
L. monocytogenes F4244 [5] = assay: Time kill assay; type: cell-based, Listeria monocytogenes; conditions: 8 μM PNA, 37 °C, samples every 20 minutes, inoculum 2.4 × 10^5 CFU/ml
[6] = tested on: L. monocytogenes J0161 in infected C. elegans; assay: C. elegans infection model; conditions: 18 hours treatment; for Log CFUs/worm: 10 worms in triplicates; for Log CFUs reduction: versus water
Method: To test the efficacy of PNA in vivo we used Listeria-infected C. elegans. The temperature-sensitive sterile mutant strain C. elegans AU37 [sek-1(km4); glp-4(bn2) I] was used for this study. This strain is sterile at room temperature and can lay eggs only at 15 °C. Furthermore, mutation in the sek-1 gene of the p38 mitogen-activated protein kinase pathway (p38 MAPK pathway), makes this particular C. elegans strain more susceptible to Listeria infection[49][56]. Initially, the pathogenicity of three strains of Listeria (F4244, J0161 and ATCC19111) was tested in C. elegans as described before[24] to determine the most virulent strain to use for this study. […] Briefly, adult worms were grown for 5 days, at 15 °C (temperature that permits worms to lay eggs) on NGM agar plates seeded with a lawn of E. coli OP50. The eggs were harvested by bleaching[57] and maintained for 24 hours at room temperature with gentle agitation for hatching. Hatched larvae were transferred to a new NGM plate seeded with E. coli OP50 and were kept at room temperature for five days until worms reached the adult stage of growth. Adult worms were collected and washed three times with M9 media in a 1:10 ratio to remove E. coli before transfer to LB agar plates seeded with a lawn of L. monocytogenes J0161 for infection. After eight hours of infection, worms were collected and washed with M9 buffer five times before incubation with PNAs. Worms were transferred to low-binding microcentrifuge tubes (10 worms per tube). […] After treatment for 18 hours, worms were washed five times with M9 buffer. […] Samples were serially diluted and plated onto TSA plates containing 5 μg/ml nalidixic acid to select for Listeria.

[7] = tested on: mitochondrial biogenesis in J774A.1 cells; assay: Mitobiogenesis assay (In-Cell ELISA, COX-I/SDH-A); conditions: three days, tested at 0.1, 1, 10 and 20 μM, COX-I/SDH-A ratio
Method: To measure the effect of PNA on the mitochondrial biogenesis, In-Cell ELISA Kit (MitoSciences Inc., Eugene, OR, USA) was used as per the manufacturer’s instructions[54][55]. Briefly, J774A.1 cells were seeded (approximately 40,000 cells per well) in 96-well plates and allowed to adhere. […] Cells were allowed to grow for approximately 3 days. Media were removed and cells were washed with PBS, then fixed with 4% paraformaldehyde. After fixing, cells were washed with PBS and permeabilization and blocking processes were done according to the manufacturer’s instructions. Primary antibodies to detect the levels of two proteins (subunit I of Complex IV (COX-I), that is mitochondrial DNA (mtDNA)-encoded), and the 70 kDa subunit of Complex II (SDH-A), a nuclear DNA (nDNA)-encoded were added and incubated for overnight at 4 °C. After incubation, cells were washed with PBS and secondary antibodies were added and incubated at room temperature for one hour. After washing, the expression of SDH-A and COX-1 were measured at 405 nm and 600 nm wavelength, respectively. The ratio between COX-I and SDH-A was calculated and the percent of inhibition of mitochondrial biogenesis was determined.

[8] = tested on: cytoplasmic membrane of L. monocytogenes F4244; assay: Calcein leakage assay; type: cell-based, Listeria monocytogenes; conditions: 30 min exposure; PRXR 8 × MIC (8 μM), nisin 5 × MIC (10 μg/ml); fluorescence, n = 3
Method: To investigate the effect of PNA on the integrity of the Listeria cell membrane, the leakage of the preloaded fluorescent dye, calcein, was monitored and quantified as described before with a few modifications. Briefly, 20 ml of logarithmic growth phase (OD600 = 1.0, ~10^9 CFU/ml) L. monocytogenes F4244 was centrifuged and bacteria were resuspended in 9 ml of sterile PBS plus 1 ml of BHI. 3 μM of calcein AM dye was added to the bacterial suspension prior to covering the suspension with aluminum foil and incubating for one hour at 37 °C. After 10 minutes centrifugation at 3,000 × g, the supernatant was discarded. The calcein-loaded bacterial cells were resuspended in 30 ml of sterile PBS and 100 μL calcein-loaded bacteria were distributed in a 96-well microtiter plate (in triplicate). PRXR was added in a concentration equal to 8 × MIC (8 μM). Nisin 5 × MIC (10 μg/ml) and sterile water were used as positive and negative controls, respectively. Intensity of fluorescence (calcein leakage) was detected every 5 minutes for 30 minutes using a fluorescence plate reader (FLx800 model BioTek® Instruments, Inc. Winooski, Vermont) with the excitation and emission filters adjusted to 485 nm and 520 nm, respectively.

MRSA USA300 = assay: MIC against MRSA in pure culture; type: cell-based; conditions: multiple of the Listeria MIC, data not shown

| Substance | MIC50 [1] [µM] | MIC ([1]; strain ATCC 13932) [µM] | MIC ([1]; strain ATCC 19111) [µM] | MIC ([1]; strain ATCC 19112) [µM] | MIC ([1]; strain ATCC 19114) [µM] | MIC ([1]; strain F4244, no turbidity) [µM] | MIC ([1]; strain J0161) [µM] | Log CFU/ml (L. monocytogenes F4244 [2]; 1 µM PNA) [Log CFU/ml] | Log CFU reduction (L. monocytogenes F4244 [2]; 1 µM PNA) [Log CFU] | Log CFU/ml (L. monocytogenes F4244 [2]; 2 µM PNA) [Log CFU/ml] | Log CFU reduction (L. monocytogenes F4244 [2]; 2 µM PNA) [Log CFU] | Log CFU/ml (L. monocytogenes F4244 [2]; 4 µM PNA) | Log CFU reduction (L. monocytogenes F4244 [2]; 4 µM PNA) [Log CFU] | Log CFU/ml (L. monocytogenes F4244 [2]; 8 µM PNA) | Log CFU reduction (L. monocytogenes F4244 [2]; 8 µM PNA) [Log CFU] | Log CFU/ml (L. monocytogenes F4244 [2]; 16 µM PNA) | Log CFU reduction (L. monocytogenes F4244 [2]; 16 µM PNA) [Log CFU] | Log CFU/ml (L. monocytogenes F4244 [2]; 32 µM PNA) | Log CFU reduction (L. monocytogenes F4244 [2]; 32 µM PNA) [Log CFU] | time to complete eradication of Listeria (L. monocytogenes F4244 [3]) [h] | other results |
| --- | --- | --- | --- | --- | --- | --- | --- | --- | --- | --- | --- | --- | --- | --- | --- | --- | --- | --- | --- | --- | --- |
| GRKKKRRQRRRYK-O-cgatcattcaaa-NH2 [PTAT] | 2 | 4 | 4 | 2 | 0.5 | 2 | 4 | 8.28±0.37 | 1.1 | 5.94±0.42 | 3.45 | Cleared | 9.39 | Cleared | 9.39 | Cleared | 9.39 | Cleared | 9.39 | ≤ 2 | bactericidal or bacteriostatic activity (L. monocytogenes F4244 [3]): bactericidal activity; downregulation of hly gene (hly): more than 50%; decrease of plcA gene expression (plcA): more than 70%; reduction in plcB gene expression (plcB; 1 μM PTAT): 55.9%; decrease of plcB gene expression (plcB; 2 μM PTAT): more than 70%; Log CFU/ml ([4]; 2 μM): 5.95 ± 0.02 Log CFU/ml; Log CFU reduction ([4]; 2 μM): 0.78 Log CFU; Log CFU/ml ([4]; 4 μM): 5.19 ± 0.33 Log CFU/ml; Log CFU reduction ([4]; 4 μM): 1.54* Log CFU; Log CFU/ml ([4]; 8 μM): 4.22 ± 0.11 Log CFU/ml; Log CFU reduction ([4]; 8 μM): 2.51* Log CFU; percentage of gene expression of rpoA (rpoA; 1 μM PTAT): more than 50%; reduction in rpoA gene expression (rpoA; 1 μM PTAT): 50% and 43.7%; percentage of gene expression of rpoA (rpoA; 4 μM PTAT): less than 5%; time to complete elimination of starting inoculum (L. monocytogenes F4244 [5]): ≤ 20 min; Log CFUs/worm ([6]; 16 µM): 3.04±0.36 Log CFUs/worm; Log CFUs reduction ([6]; 16 µM): 1.11 Log CFUs; Log CFUs/worm ([6]; 32 µM): 1.7±0.6 Log CFUs/worm; Log CFUs reduction ([6]; 32 µM): 2.67 Log CFUs; inhibition of mitochondrial protein synthesis (mitobiogenesis) [7]: does not interfere with the mitochondrial protein synthesis process |
| RXRRXRRXRRXRXB-O-cgatcattcaaa-NH2 [PRXR] | 1 | 2 | 1 | 1 | 0.25 | 1 | 4 | 6.87±0.84 | 2.51 | 3.15±0.21 | 6.24 | Cleared | 9.39 | Cleared | 9.39 | Cleared | 9.39 | Cleared | 9.39 | ≤ 2 | bactericidal or bacteriostatic activity (L. monocytogenes F4244 [3]): bactericidal activity; calcein leakage [8]: did not result in leakage; also recorded: does not permeabilize the bacterial cell membrane; Log CFU/ml ([4]; 2 μM): 4.95 ± 0.07 Log CFU/ml; Log CFU reduction ([4]; 2 μM): 1.78 Log CFU; Log CFU/ml ([4]; 4 μM): 3.079 Log CFU/ml; Log CFU reduction ([4]; 4 μM): 3.65* Log CFU; Log CFU/ml ([4]; 8 μM): complete clearance; also recorded: cleared; Log CFU reduction ([4]; 8 μM): 6.73* Log CFU; concentration without inhibition of bacterial growth (MRSA USA300): > 16 × MIC; time to complete elimination of starting inoculum (L. monocytogenes F4244 [5]): ≤ 20 min; Log CFUs/worm ([6]; 16 µM): 2.24±0.99 Log CFUs/worm; Log CFUs reduction ([6]; 16 µM): 1.91 Log CFUs; Log CFUs reduction ([6]; 32 µM): 4.38 Log CFUs |
| nisin [reference compound] | – | – | – | – | – | – | – | – | – | – | – | – | – | – | – | – | – | – | – | – | calcein leakage [8]: more than 72% |

— PMC4748415, “Impact of different cell penetrating peptides on the efficacy of antisense therapeutics for targeting intracellular pathogens” (Scientific Reports, 2016)
